Results reported in ChEMBL document CHEMBL4483862, “Open-source discovery of chemical leads for next-generation chemoprotective antimalarials” (2018).

Tested on: Plasmodium berghei
Test: Luciferase/luciferin-expressing antifolate-resistant parasites were used to infect a culture of HepG2 cells that were pre-incubated with compounds. Infected hepatocytes emit light due to the luciferase reaction. Assay results are presented as the percent inhibition of light emission compared to control. […]
Type: functional
Details: sporozoite; for IC90: read-out: LUCIFERASE INFECTION ASSAY - IC90

SMILES	IC90	further results
N=C(N)N/N=C/c1ccc(Cl)cc1Cl	5.8 µM	IC50 (HEPG2TOX_HILL_SLOPE 3.43, HEPG2TOX_R_SQUARED 0.626, PBLUC_HILL_SLOPE 2.34, PBLUC_R_SQUARED 0.812, read-out: LUCIFERASE INFECTION ASSAY - IC50): 2.27 µM
COc1ccc(OS(=O)(=O)c2sc(Br)cc2Br)cc1	3.26 µM	IC50 (HEPG2TOX_HILL_SLOPE 3.4, HEPG2TOX_R_SQUARED 0.9, PBLUC_HILL_SLOPE 10.6, PBLUC_R_SQUARED 0.653, read-out: LUCIFERASE INFECTION ASSAY - IC50): 2.64 µM
O=C(N/N=C(\Cc1ncc[nH]1)c1ccccc1)c1ccncc1	3.77 µM	IC50 (HEPG2TOX_HILL_SLOPE 3.38, HEPG2TOX_R_SQUARED 0.998, PBLUC_HILL_SLOPE 17.1, PBLUC_R_SQUARED 0.54, read-out: LUCIFERASE INFECTION ASSAY - IC50): 3.31 µM
CCCOc1ccc(/C=N/NC(=S)Nc2ccccc2[N+](=O)[O-])c(O)c1	1 µM	IC50 (HEPG2TOX_HILL_SLOPE 3.34, HEPG2TOX_R_SQUARED 0.913, PBLUC_HILL_SLOPE 0.962, PBLUC_R_SQUARED 0.919, read-out: LUCIFERASE INFECTION ASSAY - IC50): 0.102 µM
Cc1ccc2[nH]c3c(c2c1)CCCC3N (stereo not given)	10.5 µM	IC50 (HEPG2TOX_HILL_SLOPE 3.36, HEPG2TOX_R_SQUARED 0.51, PBLUC_HILL_SLOPE 2.39, PBLUC_R_SQUARED 0.343, read-out: LUCIFERASE INFECTION ASSAY - IC50): 4.17 µM
NC(=O)c1cccc(-c2ccc3ncc(-c4cccc(O)c4)n3n2)c1	7.72 µM	IC50 (HEPG2TOX_HILL_SLOPE 3.39, HEPG2TOX_R_SQUARED 0.986, PBLUC_HILL_SLOPE 6.74, PBLUC_R_SQUARED 0.592, read-out: LUCIFERASE INFECTION ASSAY - IC50): 5.57 µM
Cn1c(C(C#N)C(=O)c2cc(-c3ccccc3)nc3ccccc23)nc2ccccc21 (stereo not given)	7.46 µM	IC50 (HEPG2TOX_HILL_SLOPE 3.46, HEPG2TOX_R_SQUARED 0.527, PBLUC_HILL_SLOPE 3.86, PBLUC_R_SQUARED 0.794, read-out: LUCIFERASE INFECTION ASSAY - IC50): 4.22 µM
COc1cc(NC(=O)Nc2cc(Cl)cc(Cl)c2)cc(C(F)(F)F)c1	0.748 µM	IC50 (HEPG2TOX_HILL_SLOPE 3.42, HEPG2TOX_R_SQUARED 0.986, PBLUC_HILL_SLOPE 0.84, PBLUC_R_SQUARED 0.7, read-out: LUCIFERASE INFECTION ASSAY - IC50): 0.0547 µM
Cc1csc(NC(=O)Nc2cc(C(F)(F)F)cc(C(F)(F)F)c2)c1Cl	2.61 µM	IC50 (HEPG2TOX_HILL_SLOPE 3.35, HEPG2TOX_R_SQUARED 0.976, PBLUC_HILL_SLOPE 39.1, PBLUC_R_SQUARED 0.116, read-out: LUCIFERASE INFECTION ASSAY - IC50): 2.47 µM
COc1cc(-c2nc3ccc(NC(=O)Nc4cccc(C(C)=O)c4)cn3n2)cc(OC)c1OC	1.53 µM	IC50 (HEPG2TOX_HILL_SLOPE 3.38, HEPG2TOX_R_SQUARED 0.754, PBLUC_HILL_SLOPE 9.64, PBLUC_R_SQUARED 0.711, read-out: LUCIFERASE INFECTION ASSAY - IC50): 1.21 µM
CN(Cc1ccc2c(c1)OCO2)c1cnn(-c2nc3ccccc3[nH]2)c(=O)c1Cl	3.94 µM	IC50 (HEPG2TOX_HILL_SLOPE 3.37, 11.7, HEPG2TOX_R_SQUARED 0.995, 0.503, PBLUC_HILL_SLOPE 3.37, 1.13, PBLUC_R_SQUARED 0.633, 0.779, read-out: LUCIFERASE INFECTION ASSAY - IC50): 0.948 µM
c1ccc(C[n+]2ccc(-c3ncc(-c4ccc5ccccc5c4)o3)cc2)cc1	4.15 µM	IC50 (HEPG2TOX_HILL_SLOPE 3.46, HEPG2TOX_R_SQUARED 0.77, PBLUC_HILL_SLOPE 12.4, 9.50, PBLUC_R_SQUARED 0.642, 0.816, read-out: LUCIFERASE INFECTION ASSAY - IC50): 3.38 µM
O=C(Cn1cnc2c(cnn2-c2ccccc2)c1=O)c1c[nH]c2ccccc12	> 10 µM	IC50 (HEPG2TOX_HILL_SLOPE 3.41, HEPG2TOX_R_SQUARED 0.825, PBLUC_HILL_SLOPE 1.56, PBLUC_R_SQUARED 0.738, read-out: LUCIFERASE INFECTION ASSAY - IC50): 2.81 µM
CCN(c1ccccc1)S(=O)(=O)c1cc(NC(=O)NC23CC4(C)CC(C)(CC(C)(C4)C2)C3)ccc1Cl	6.3 µM	IC50 (HEPG2TOX_HILL_SLOPE 3.39, HEPG2TOX_R_SQUARED 0.973, PBLUC_HILL_SLOPE 5.7, PBLUC_R_SQUARED 0.283, read-out: LUCIFERASE INFECTION ASSAY - IC50): 4.28 µM
O=c1c(-c2cccc(Cl)c2)c[nH]n1-c1cccc(C(F)(F)F)c1	> 9.74 µM	IC50 (HEPG2TOX_HILL_SLOPE 3.35, HEPG2TOX_R_SQUARED 0.846, PBLUC_HILL_SLOPE 3.63, PBLUC_R_SQUARED 0.619, read-out: LUCIFERASE INFECTION ASSAY - IC50): 5.69 µM
CCn1c2ccccc2c2cc(NC(=O)c3ccncc3)ccc21	3.82 µM	IC50 (HEPG2TOX_HILL_SLOPE 3.45, HEPG2TOX_R_SQUARED 0.806, PBLUC_HILL_SLOPE 11.3, PBLUC_R_SQUARED 0.493, read-out: LUCIFERASE INFECTION ASSAY - IC50): 3.14 µM
O=C(Nc1cccc2ccccc12)N1CCN(c2ncccc2C(F)(F)F)CC1	0.105 µM	IC50 (HEPG2TOX_HILL_SLOPE 3.44, HEPG2TOX_R_SQUARED 0.402, PBLUC_HILL_SLOPE 82.3, PBLUC_R_SQUARED 0.563, read-out: LUCIFERASE INFECTION ASSAY - IC50): 0.102 µM
N#Cc1ccc(-c2ccc3nnc(-c4cccc(C(F)(F)F)c4)n3c2)cc1	7.29 µM	IC50 (HEPG2TOX_HILL_SLOPE 3.44, HEPG2TOX_R_SQUARED 0.706, PBLUC_HILL_SLOPE 4.37, PBLUC_R_SQUARED 0.179, read-out: LUCIFERASE INFECTION ASSAY - IC50): 4.41 µM
CC1Cc2cc(S(N)(=O)=O)ccc2N1CCCOc1ccc(F)cc1 (stereo not given)	> 10 µM	IC50 (HEPG2TOX_HILL_SLOPE 3.41, HEPG2TOX_R_SQUARED 0.506, PBLUC_HILL_SLOPE 2.13, PBLUC_R_SQUARED 0.616, read-out: LUCIFERASE INFECTION ASSAY - IC50): 6.18 µM
CCc1ccc(S(=O)(=O)N2[C@@H]3CC[C@@H](C3)[C@H]2c2nc3c(OC(C)C)cccc3[nH]2)cc1	> 10 µM	IC50 (HEPG2TOX_HILL_SLOPE 3.46, HEPG2TOX_R_SQUARED 0.87, PBLUC_HILL_SLOPE 16.2, PBLUC_R_SQUARED 0.535, read-out: LUCIFERASE INFECTION ASSAY - IC50): 9.38 µM
COc1cc(NCc2cc(Cl)cc(Cl)c2OC)ccc1NC(=O)C(C)C	8.02 µM	IC50 (HEPG2TOX_HILL_SLOPE 3.35, HEPG2TOX_R_SQUARED 0.946, PBLUC_HILL_SLOPE 1.13, PBLUC_R_SQUARED 0.756, read-out: LUCIFERASE INFECTION ASSAY - IC50): 1.15 µM
COc1ccccc1-c1cc(-c2ccccc2N(C)C)cnc1N	> 10.3 µM	IC50 (HEPG2TOX_HILL_SLOPE 3.39, HEPG2TOX_R_SQUARED 0.524, PBLUC_HILL_SLOPE 1.95, PBLUC_R_SQUARED 0.212, read-out: LUCIFERASE INFECTION ASSAY - IC50): 5.47 µM
COc1ccc(-c2cnc3cnc(-c4ccsc4)cn23)cc1	4.82 µM	IC50 (HEPG2TOX_HILL_SLOPE 3.46, HEPG2TOX_R_SQUARED 0.703, PBLUC_HILL_SLOPE 8.9, PBLUC_R_SQUARED 0.737, read-out: LUCIFERASE INFECTION ASSAY - IC50): 3.76 µM
Cc1ccc2nc(NC(=O)c3ccc(Cl)cc3)c(C(=O)NC3CCCC3)n2c1	3.09 µM	IC50 (HEPG2TOX_HILL_SLOPE 3.44, HEPG2TOX_R_SQUARED 0.175, PBLUC_HILL_SLOPE 15.5, PBLUC_R_SQUARED 0.331, read-out: LUCIFERASE INFECTION ASSAY - IC50): 2.68 µM
CCOC(=O)c1cc(NC(=O)Nc2ccc(Cl)c(Cl)c2)ccc1Oc1cncc(Cl)c1	4.18 µM	IC50 (HEPG2TOX_HILL_SLOPE 3.45, HEPG2TOX_R_SQUARED 0.989, PBLUC_HILL_SLOPE 3.28, PBLUC_R_SQUARED 0.474, read-out: LUCIFERASE INFECTION ASSAY - IC50): 2.14 µM
O=C(Nc1ccc(Cl)cc1)c1cc(-c2ccccc2)c(C(F)(F)F)s1	6.06 µM	IC50 (HEPG2TOX_HILL_SLOPE 3.44, HEPG2TOX_R_SQUARED 0.918, PBLUC_HILL_SLOPE 6.48, PBLUC_R_SQUARED 0.174, read-out: LUCIFERASE INFECTION ASSAY - IC50): 4.32 µM
O=C(Nc1cc(Cl)ccc1OC(=O)c1ccc(C(F)(F)F)cc1)c1ccc(C(F)(F)F)cc1	2.9 µM	IC50 (HEPG2TOX_HILL_SLOPE 3.38, HEPG2TOX_R_SQUARED 0.98, PBLUC_HILL_SLOPE 2.51, PBLUC_R_SQUARED 0.591, read-out: LUCIFERASE INFECTION ASSAY - IC50): 1.21 µM
CS(=O)(=O)c1ncc(Cl)c(C(=O)C(C#N)c2ccc3ccccc3n2)n1 (stereo not given)	4.88 µM	IC50 (HEPG2TOX_HILL_SLOPE 3.45, HEPG2TOX_R_SQUARED 0.508, PBLUC_HILL_SLOPE 8.67, PBLUC_R_SQUARED 0.634, read-out: LUCIFERASE INFECTION ASSAY - IC50): 3.78 µM
O=C(NCc1cc(Cl)c2c(c1)OCCCO2)c1cnn(Cc2ccccc2)c1	> 10 µM	IC50 (HEPG2TOX_HILL_SLOPE 3.36, HEPG2TOX_R_SQUARED 0.962, PBLUC_HILL_SLOPE 1.54, PBLUC_R_SQUARED 0.197, read-out: LUCIFERASE INFECTION ASSAY - IC50): 9.57 µM
CC(C)[C@H](Nc1ccc(C(F)(F)F)cc1Cl)C(=O)Nc1ccc(C#N)cc1	3.14 µM	IC50 (HEPG2TOX_HILL_SLOPE 3.39, HEPG2TOX_R_SQUARED 0.849, PBLUC_HILL_SLOPE 25.1, 22.4, PBLUC_R_SQUARED 0.626, 0.774, read-out: LUCIFERASE INFECTION ASSAY - IC50): 2.85 µM
